The subject of series [1] is 9 L, U87 ΔEGFR, and DU145 cell. Description: Cell uptake and uptake inhibition, stated across all cell lines tested. In kind it is cell-based, rat; human. Conditions: for relative cell uptake (in words): all cell lines; for mechanism of transport (in words): each of the cell lines tested. On the procedure: Data are presented as percent ligand uptake of the initial dose per 0.5 million cells (% ID/5×10^5 cells).
(§1) Consistent with this reasoning, having knowledge of which systems take part in transporting a particular amino acid is of value, since this information can be used to determine which tumor types the amino acid may be useful for imaging. To establish which systems are responsible for transporting a particular AA, cell uptake inhibition studies are performed. In these studies, a known number of cells of a certain line are suspended in a media containing a known quantity of an amino acid radiotracer and incubated for a set period to allow for the amino acid to be transported into the cells. […] The radioactivity present within the cells after rinsing is measured and expressed as a normalized percent uptake of the radioactive amino acid dose that the cells were initially exposed to. This experiment establishes the degree to which a given amino acid is taken up by a group of cells in the absence of any perturbing conditions and serves as the control.
(§2) With this information in hand, the cell uptake experiment is performed again, but in the presence of an excess of a substrate known to have a high affinity for a particular transport system. The excess substrate floods the targeted system, competitively inhibiting the transport of other amino acids. Consequently, any reduction in cellular uptake of radioactivity relative to the control experiment is assumed to arise from loss of amino acid transport by the inhibited system. It follows that if inhibition of a transport system results in reduced uptake of a given amino acid, then that system contributes to cellular transport of the amino acid. Furthermore, the degree to which the system participates in transport can be roughly evaluated by the percent loss (inhibition) of amino acid uptake relative to the control. In addition to delineating transport mechanisms, cell uptake studies provide insight into the avidity of a particular cell line for an amino acid.
(§3) The potential of [^18F]3.09, [^18F]3.23, and [^18F]3.33 as PET radiotracers were evaluated for imaging brain and prostate cancer, cell uptake studies with rat 9 L gliosarcoma, human U87 ΔEGFR glioblastoma, and human DU145 androgen-independent prostate carcinoma. Uptake data for anti-3-[^18F]-FACBC were also collected under the same conditions for comparison. Alpha-(methylamino)isobutyric acid (MeAIB) was used as a competitive inhibitor for system A transport, 2-amino-bicyclo[2.2.1]heptane2-carboxylic acid (BCH) was used to inhibit system L, and the combination of alanine, serine, and cysteine was used for inhibition of system ASC.

Series [2] can be described thus: MicroPET biodistribution in normal Fischer rats (bladder accumulation). To be noted: post injection. In kind it is in vivo. On the procedure: DFACPC, and anti-3-[^18F] FACBC.
(§4) [^18F]trans-3,4-DFACPC ([^18F]3.23) was prepared in 1.3% decay corrected radiochemical yield in greater than 99% radio-chemical purity. Competitive uptake inhibition studies with 9 L gliosarcoma, human U87 ΔEGFR glioblastoma, and human DU145 androgen-independent prostate carcinoma cells to establish the mechanism of transport of [^18F]3.23, as well as its affinity for each cell line. The biodistribution of [^18F]3.23 was assessed in normal and intracranial 9 L gliosarcoma bearing rats via micro-PET imaging.
MicroPET biodistribution studies in normal Fischer rats established that bladder accumulation of [^18F]3.23 is delayed until at least 10 minutes post injection. In rats bearing intracranial 9 L gliosarcoma, [^18F]3.23 gave tumor uptake values of up to 1.2% injected dose per gram (% ID/g) and tumor to contralateral brain tissue ratios of up to 2.8.

For series [3], the system named is human DU145 androgen-independent prostate carcinoma. Description: Cell uptake study in DU145 prostate carcinoma cells. In kind it is cell-based. To be noted: for uptake in DU145 cells: no inhibitor, 30 min incubation. On the procedure:
as §1, §2, §3

Series [4] relates to intracranial 9 L gliosarcoma tumors. Description: MicroPET biodistribution in Fischer rats bearing intracranial 9 L gliosarcoma tumors. In kind it is in vivo. Conditions: for tumor uptake at final time point: final time point / final scan; for background uptake in healthy brain: normal brain, range over the study. On the procedure: To gain insight into the biodistribution profiles of [^18F]3.09, [^18F]3.23, and [^18F]3.33 each was administered to Fischer rats bearing intracranial 9 L gliosarcoma tumors, which have been used extensively as models for human glioma. With each tracer, uptake in 9 L tumors was higher than in normal brain tissue at all time points, peaking near the 12.5-minute time point. Tumor uptake was highest with [^18F]3.09 and stayed fairly constant at 2.0-2.2% injected dose per gram of tissue (% ID/g) throughout the course of the study. […] While absolute uptake in tumors was highest with [^18F]3.09, background uptake in healthy brain was also highest with this stereoisomer, ranging from 0.59-0.96% % ID/g, compared to uptake values of 0.39-0.46 and 0.28-0.36% ID/g obtained with [^18F]3.23 and [^18F]3.33, respectively.
as §4

The test system of series [5] is rat 9 L gliosarcoma. Conditions: 9 L gliosarcoma cells; cited from earlier work.
Series [6] relates to human U87 ΔEGFR glioblastoma. Description: Cell uptake inhibition study in U87 ΔEGFR glioblastoma cells. In kind it is cell-based. On the procedure:
as §1, with “This experiment establishes the degree to which a given amino acid is taken up by a group of cells in the absence of any perturbing conditions and serves as the control.” left out
With this information in hand, the cell uptake experiment is performed again, but in the presence of an excess of a substrate known to have a high affinity for a particular transport system. […] Consequently, any reduction in cellular uptake of radioactivity relative to the control experiment is assumed to arise from loss of amino acid transport by the inhibited system. […] Furthermore, the degree to which the system participates in transport can be roughly evaluated by the percent loss (inhibition) of amino acid uptake relative to the control. […]

Where [7] appears, read: range over the three cell lines.
The mark [8] stands for this setting: 4.5-minute time point (highest for the tracer).

Consider five molecules from patent publication US20230158178A1, “Radionuclide Tracers of 1-Amino-3,4-Difluorocyclopentane-1-Carboxylic Acid, Derivatives, and Uses Thereof” (Emory University, priority 2020, published 2023).

For `N[C@]1(C(=O)O)C[C@@H](F)[C@H]([18F])C1` (racemic) [[^18F]3.23, trans-[^18F]-1-amino-3,4-difluorocyclopentane-1-carboxylic acid], in series [1], the “relative cell uptake (in words)” value was “greater uptake than [^18F]3.33 in all cell lines” and the “mechanism of transport (in words)” value is “transported primarily via system L with some transport occurring via system ASC”. The “bladder accumulation delayed until” value in series [2] is “at least 10 minutes”. Also, in series [3], the “avidity of DU145 cells (in words)” value is on record as “substantially greater avidity”; the “uptake in DU145 cells, fold higher than [^18F]-FACBC” value is 1.7 fold; the “uptake in DU145 cells, fold higher than the best cis-3,4-DFACPC analog” value was about 2 fold; the “uptake in DU145 cells” value was determined as 34 % ID/5×10^5 cells. Further, the “tumor uptake at final time point” value in series [4] (9 L tumor) was 1.1 % ID/g. In addition, in series [4] (12.5-minute mark (maximum)), the L/N ratio was determined as 2.8. Moreover, the L/N ratio in series [4] (52.5 minutes) came out at 2.4. Besides, the “tumor to contralateral brain tissue ratios” value in series [4] (maximum (up to)) is given as “up to 2.8”. Also, in series [4], the “background uptake in healthy brain” value is recorded as 0.39-0.46 % ID/g.
For `N[C@]1(C(=O)O)C[C@@H](F)C1` [anti-3-[^18F]-FACBC, anti-1-amino-3-[^18F]fluorocyclobutane-1-carboxylic acid], the “uptake levels, percent of the initial dose per 0.5 million cells” value in series [1] (across all cell lines tested, no inhibitor, 30 min incubation) is reported as 6-20 % ID/5×10^5 cells. In addition, the “mechanism of transport (in words)” value in series [1] was “primarily a substrate for system ASC”. In series [1] (setting [7]), the “inhibition of uptake by BCH (system L)” value was 36-56%; the “inhibition of uptake by alanine, serine, and cysteine (system ASC)” value was 73-87%. For the same molecule, the “uptake in DU145 cells” value in series [3] was 20 % ID/5×10^5 cells.
On to `N[C@]1(C(=O)O)CCC[C@@H]1[18F]` [anti-2-[^18F]-FACPC, anti-1-amino-2-[^18F] fluorocyclopentane-1-carboxylic acid], for which, in series [5], the “inhibition of uptake by BCH (system L)” value is 71%; the “inhibition of uptake by MeAIB (system A)” value is recorded as 38%; the “inhibition of uptake by alanine, serine, and cysteine (system ASC)” value was 65%.
Consider `N[C@]1(C(=O)O)C[C@@H](F)[C@@H]([18F])C1` [[^18F]3.09, anti-cis-[^18F]-1-amino-3,4-difluorocyclopentane-1-carboxylic acid], for which the “relative cell uptake (in words)” value in series [1] is “greater uptake than [^18F]3.33 in all cell lines”. In series [3], the “uptake in DU145 cells” value turned out to be 18 % ID/5×10^5 cells. Further, in series [4] (setting [8]), the L/N ratio is reported as 3.5. In addition, the “tumor uptake, injected dose per gram of tissue” value in series [4] (9 L tumor, throughout the course of the study) was 2.0-2.2 % ID/g. For the same molecule, the “background uptake in healthy brain” value in series [4] is 0.59-0.96 % ID/g. Further, in series [6], the “inhibition of uptake by BCH” value amounted to 50%; the “inhibition of uptake by alanine, serine, and cysteine” value is given as 78%.
With `N[C@@]1(C(=O)O)C[C@@H]([18F])[C@@H](F)C1` [[^18F]3.33, syn-cis-[^18F]-1-amino-3,4-difluorocyclopentane-1-carboxylic acid], the L/N ratio in series [4] (setting [8]) came out at 4.3. In addition, in series [4] (9 L tumor), the “tumor uptake at final time point” value worked out at 0.8 % ID/g. In addition, in series [4] (9 L tumor, peak / maximum), the “tumor uptake, peak value” is 1.2 % ID/g. Moreover, the “background uptake in healthy brain” value in series [4] is given as 0.28-0.36 % ID/g.
